The text below walks through data of patent US9844536B2, “3-(1H-imidazo[4,5-C]pyridin-2-yl)-1H-pyrazolo[3,4-C]pyridine and therapeutic uses thereof” (Samumed, LLC, priority 2014, dated 2017).

This assay deals with Wnt pathway (Sp5-Luc reporter, SW480 cells). Kind of assay: Sp5-Luc reporter gene screening assay for Wnt activity in SW480 colon carcinoma cells. In kind it is cell-based. Particulars: Homo sapiens. The text has this: The screening assay for Wnt activity is described as follows. Reporter cell lines can be generated by stably transducing cancer cell lines (e.g., colon cancer) or primary cells (e.g., IEC-6 intestinal cells) with a lentiviral construct that includes a Wnt-responsive promoter driving expression of the firefly luciferase gene.
SW480 colon carcinoma cells were transduced with a lentiviral vector expressing luciferase with a human Sp5 promoter consisting of a sequence of eight TCF/LEF binding sites. SW480 cells stably expressing the Sp5-Luc reporter gene and a hygromycin resistance gene were selected by treatment with 150 μg/ml of hygromycin for 7 days. These stably transduced SW480 cells were expanded in cell culture and used for all further screening activities. For Sp5-Luc reporter gene assays, the cells were plated at 10,000 cells/well in 96-well plates with growth medium containing 10% fetal calf serum and incubated overnight at 37° C. and 5% CO2. Each compound was dissolved in DMSO as a 10 mM stock in standard j-vials and used to prepare compound source plates in dose-response format with 3-fold serial dilutions and a 10 mM top concentration. Compound transfer from serially diluted source plates to assay plates containing the cells was accomplished using a pintool (Multimek 96, Beckman equipped with V&P Scientific FP1S50H pins) based liquid handling protocol. This protocol used a slotted pin to transfer 50 nl of compound from a source plate well to an assay plate well containing 50 μl of cells in growth medium. […] Control wells received 50 nl of DMSO treatment for normalization and calculating IC50 values. The treated cells were incubated at 37° C. and 5% CO2 for an additional forty-two hours. Following incubation, the growth medium was removed and 50 μl of BrightGlo luminescence reagent (Promega) was added to each well of the 96-well assay plates. The plates were placed on an orbital shaker for 5 min and then luminescence was quantified on the Victor3 (Perkin Elmer) plate reader. Readings were normalized to DMSO only treated cells, and normalized activities were utilized for IC50 calculations using the dose-response log (inhibitor) vs. response-variable slope (four parameters) nonlinear regression feature available in GraphPad Prism 5.0 or 6.0.
In turn, `CCC(=O)Nc1cncc(-c2cc3c(-c4nc5c(-c6cccc(F)c6)nccc5[nH]4)n[nH]c3cn2)c1` [Compound 1, N-(5-(3-(4-(3-Fluorophenyl)-1H-imidazo[4,5-c]pyridin-2-yl)-1H-pyrazolo[3,4-c]pyridin-5-yl)pyridin-3-yl)propionamide] showed an IC50 of 34.1 nM.

In the case of `CCCC(=O)Nc1cncc(-c2cc3c(-c4nc5c(-c6ccc(F)cc6)nccc5[nH]4)n[nH]c3cn2)c1` [Compound 43, N-(5-(3-(4-(4-Fluorophenyl)-1H-imidazo[4,5-c]pyridin-2-yl)-1H-pyrazolo[3,4-c]pyridin-5-yl)pyridin-3-yl)butyramide], the IC50 was 130 nM. In the case of `CC(C)CC(=O)Nc1cncc(-c2cc3c(-c4nc5c(-c6ccccc6F)nccc5[nH]4)n[nH]c3cn2)c1` [Compound 54, N-(5-(3-(4-(2-Fluorophenyl)-1H-imidazo[4,5-c]pyridin-2-yl)-1H-pyrazolo[3,4-c]pyridin-5-yl)pyridin-3-yl)-3-methylbutanamide] it was 47.6 nM; in that of `CC(C)(C)CC(=O)Nc1cncc(-c2cc3c(-c4nc5c(-c6ccccc6F)nccc5[nH]4)n[nH]c3cn2)c1` [Compound 68, N-(5-(3-(4-(2-Fluorophenyl)-1H-imidazo[4,5-c]pyridin-2-yl)-1H-pyrazolo[3,4-c]pyridin-5-yl)pyridin-3-yl)-3,3-dimethylbutanamide], 920 nM; in that of `CCCC(=O)Nc1cncc(-c2cc3c(-c4nc5c(-c6ccccc6F)nccc5[nH]4)n[nH]c3cn2)c1` [Compound 69, N-(5-(3-(4-(2-Fluorophenyl)-1H-imidazo[4,5-c]pyridin-2-yl)-1H-pyrazolo[3,4-c]pyridin-5-yl)pyridin-3-yl)butyramide], 33.4 nM. With `c1cncc(-c2nccc3[nH]c(-c4n[nH]c5cnc(-c6cncc(CN7CCCCC7)c6)cc45)nc23)c1` [Compound 93, 5-(5-(Piperidin-1-ylmethyl)pyridin-3-yl)-3-(4-(pyridin-3-yl)-1H-imidazo[4,5-c]pyridin-2-yl)-1H-pyrazolo[3,4-c]pyridine], the IC50 was above 10000 nM. Regarding `c1ccc(CNCc2cncc(-c3cc4c(-c5nc6c(-c7cccnc7)nccc6[nH]5)n[nH]c4cn3)c2)cc1` [Compound 101, N-Benzyl-1-(5-(3-(4-(pyridin-3-yl)-1H-imidazo[4,5-c]pyridin-2-yl)-1H-pyrazolo[3,4-c]pyridin-5-yl)pyridin-3-yl)methanamine], the IC50 is 51.3 nM.

Consider `CCCCC(=O)Nc1cncc(-c2cc3c(-c4nc5c(-c6ccccn6)nccc5[nH]4)n[nH]c3cn2)c1` [Compound 148, N-(5-(3-(4-(Pyridin-2-yl)-1H-imidazo[4,5-c]pyridin-2-yl)-1H-pyrazolo[3,4-c]pyridin-5-yl)pyridin-3-yl)pentanamide], for which the IC50 came to 199 nM. For the compound `CC(C)(C)C(=O)Nc1cncc(-c2cc3c(-c4nc5c(N6CCCCC6)nccc5[nH]4)n[nH]c3cn2)c1` [Compound 164, N-(5-(3-(4-(Piperidin-1-yl)-1H-imidazo[4,5-c]pyridin-2-yl)-1H-pyrazolo[3,4-c]pyridin-5-yl)pyridin-3-yl)pivalamide], the IC50 stood at 140 nM.

Take `Cc1cn(-c2nccc3[nH]c(-c4n[nH]c5cnc(-c6cncc(NC(=O)CC(C)C)c6)cc45)nc23)cn1` [Compound 184]: the midpoint of inhibition, the IC50, lay at 41 nM.

`CN1CCN(c2nccc3[nH]c(-c4n[nH]c5cnc(-c6cncc(N)c6)cc45)nc23)CC1` [Compound 211, 5-(3-(4-(4-Methylpiperazin-1-yl)-1H-imidazo[4,5-c]pyridin-2-yl)-1H-pyrazolo[3,4-c]pyridin-5-yl)pyridin-3-amine]: the IC50 turned out to be 118 nM. Compound `CC(C)(C)CC(=O)Nc1cncc(-c2cc3c(-c4nc5cnccc5[nH]4)n[nH]c3cn2)c1` [Compound 250, N-(5-(3-(1H-Imidazo[4,5-c]pyridin-2-yl)-1H-pyrazolo[3,4-c]pyridin-5-yl)pyridin-3-yl)-3,3-dimethylbutanamide] yielded an IC50 above 10000 nM.

On to `CC(C)(C)C(=O)Nc1cncc(-c2cc3c(-c4nc5c(-c6ccoc6)nccc5[nH]4)n[nH]c3cn2)c1` [Compound 294, N-(5-(3-(4-(Furan-3-yl)-1H-imidazo[4,5-c]pyridin-2-yl)-1H-pyrazolo[3,4-c]pyridin-5-yl)pyridin-3-yl)pivalamide], for which the midpoint of inhibition, the IC50, lay at 38.7 nM.

In turn, `CCC(=O)Nc1cncc(-c2cc3c(-c4nc5c(-c6cccs6)nccc5[nH]4)n[nH]c3cn2)c1` [Compound 313, N-(5-(3-(4-(Thiophen-2-yl)-1H-imidazo[4,5-c]pyridin-2-yl)-1H-pyrazolo[3,4-c]pyridin-5-yl)pyridin-3-yl)propionamide] yielded an IC50 of 28.6 nM. Consider `CC(C)CC(=O)Nc1cncc(-c2cc3c(-c4nc5c(-c6cccs6)nccc5[nH]4)n[nH]c3cn2)c1` [Compound 314, 3-Methyl-N-(5-(3-(4-(thiophen-2-yl)-1H-imidazo[4,5-c]pyridin-2-yl)-1H-pyrazolo[3,4-c]pyridin-5-yl)pyridin-3-yl)butanamide], for which the IC50 amounted to 359 nM. The value for `O=C(Nc1cncc(-c2cc3c(-c4nc5c(-c6cccs6)nccc5[nH]4)n[nH]c3cn2)c1)C1CCC1` [Compound 332, N-(5-(3-(4-(Thiophen-2-yl)-1H-imidazo[4,5-c]pyridin-2-yl)-1H-pyrazolo[3,4-c]pyridin-5-yl)pyridin-3-yl)cyclobutanecarboxamide] was 37.8 nM; that for `Fc1cccc(-c2nccc3[nH]c(-c4n[nH]c5cnc(-c6cncc(OC7CCCCC7)c6)cc45)nc23)c1` [Compound 943, 5-(5-(Cyclohexyloxy)pyridin-3-yl)-3-(4-(3-fluorophenyl)-1H-imidazo[4,5-c]pyridin-2-yl)-1H-pyrazolo[3,4-c]pyridine] was 255 nM; that for `Fc1cccc(-c2nccc3[nH]c(-c4n[nH]c5cnc(-c6cncc(OC7CCNCC7)c6)cc45)nc23)c1` [Compound 944, 3-(4-(3-Fluorophenyl)-1H-imidazo[4,5-c]pyridin-2-yl)-5-(5-(piperidin-4-yloxy)pyridin-3-yl)-1H-pyrazolo[3,4-c]pyridine] was above 10000 nM. As for `Fc1cccc(-c2nccc3[nH]c(-c4n[nH]c5cnc(-c6cncc(OCCN7CCCC7)c6)cc45)nc23)c1` [Compound 946, 3-(4-(3-Fluorophenyl)-1H-imidazo[4,5-c]pyridin-2-yl)-5-(5-(2-(pyrrolidin-1-yl)ethoxy)pyridin-3-yl)-1H-pyrazolo[3,4-c]pyridine], the IC50 is above 10000 nM. Take `Fc1cccc(-c2nccc3[nH]c(-c4n[nH]c5cnc(-c6cncc(OCc7ccccc7)c6)cc45)nc23)c1` [Compound 950, 5-(5-(Benzyloxy)pyridin-3-yl)-3-(4-(3-fluorophenyl)-1H-imidazo[4,5-c]pyridin-2-yl)-1H-pyrazolo[3,4-c]pyridine]: the IC50 was 2010 nM. In the case of `O=C(CC1CCCCC1)Nc1cncc(-c2cc3c(-c4nc5c(-c6cccc(F)c6)nccc5[nH]4)n[nH]c3cn2)c1` [Compound 951, 2-Cyclohexyl-N-(5-(3-(4-(3-fluorophenyl)-1H-imidazo[4,5-c]pyridin-2-yl)-1H-pyrazolo[3,4-c]pyridin-5-yl)pyridin-3-yl)acetamide] it was 1040 nM; in that of `Fc1cccc(-c2nccc3[nH]c(-c4n[nH]c5cnc(-c6ccncc6)cc45)nc23)c1` [Compound 952, 3-(4-(3-Fluorophenyl)-1H-imidazo[4,5-c]pyridin-2-yl)-5-(pyridin-4-yl)-1H-pyrazolo[3,4-c]pyridine], 32 nM; in that of `CC(C)CC(=O)Nc1cncc(-c2cc3c(-c4nc5c(-c6cc(F)cc(OCCN(C)C)c6)nccc5[nH]4)n[nH]c3cn2)c1` [Compound 1262, N-(5-(3-(4-(3-(2-(Dimethylamino)ethoxy)-5-fluorophenyl)-1H-imidazo[4,5-c]pyridin-2-yl)-1H-pyrazolo[3,4-c]pyridin-5-yl)pyridin-3-yl)-3-methylbutanamide], 2060 nM.

Compound `CC(C)CC(=O)Nc1cncc(-c2cc3c(-c4nc5c(-c6cc(F)cc(OCCN7CCCC7)c6)nccc5[nH]4)n[nH]c3cn2)c1` [Compound 1306, N-(5-(3-(4-(3-Fluoro-5-(2-(pyrrolidin-1-yl)ethoxy)phenyl)-1H-imidazo[4,5-c]pyridin-2-yl)-1H-pyrazolo[3,4-c]pyridin-5-yl)pyridin-3-yl)-3-methylbutanamide] had an IC50 of 4220 nM.
